Experimental data taken from patent publication US4201843A, “Process for manufacturing tylosin derivatives” (Sanraku Ocean Co., Ltd., priority 1975, dated 1980).
≈ marks a conversion by molar mass, not a printed value.

Experiments:
[1] = test system: Streptococcus pyogenes MH 771; test: minimum growth-inhibitory concentration; format: cell-based; details: MH771, read-out: minimum growth-inhibitory concentration (MIC)
Protocol: (§1) The antimicrobial spectra of new tylosin derivatives of this invention are shown in Table 2 by listing the minimum growth inhibitory concentrations (MIC, mcg/ml). […] The toxicity of these compounds was tested in animals by intravenous administration, and the LD50 values in mice are more than 400 mg/kg with all compounds. In therapeutical experiments with mice manually infected by Staphilococcus aureus SMITH, the ED50 values were less than 50 mg/kg (p.o.) with all said tylosin derivatives.
(broth-dilution method)
(§2) The strains marked * in Table 2 are the drug resistant strains isolated from patients, namely, Staphilococcus aureus MS-9610 which is resistant to penicillin, tetracycline, erythromycin, leucomycin, spiramycin, josamycin and tylosin, Staphilococcus aureus MS-8710 which is resistant to penicillin, tetracycline, erythromycin, leucomycin and tylosin, and Streptococcus pyogenes MH 771 which is resistant to erythromycin, oleandomycin, leucomycin and tylosin.

[2] = solubility in solvents; format: physicochemical; details: for solubility in lower alcohols, ketones, ethers, esters, benzene and toluene: e.g. ethanol, acetone, ethyl ether, ethyl acetate
Text: (§3) The physicochemical analysis and deterimations included elementary analysis, melting point, specific rotatory power, ultraviolet spectrum, infrared spectrum, magnetic nuclear resonance (NMR), C^13 -NMR, mass spectrum (chemical ionization), the release of organic acids under alkaline conditions (gas chromatographical detection), solubility in solvents, color development reaction, basicity of the compounds, appearance and crystalline form. The molecular weight was obtained as QM^+ (Quasi Molecular ion) by chemically-ionized mass spectra analysis.
(§4) (2) the crystals obtained from the solvents in (13) were used for the tests in (1)-(12), and […]

[3] = test system: Bacillus subtilis ATCC 6633; test: minimum growth-inhibitory concentration; format: cell-based; details: ATCC6633
Protocol: as §1

[4] = test system: Corynebacterium bovis 1810; test: minimum growth-inhibitory concentration; format: cell-based
Protocol: as §1

[5] = test system: Sarcina lutea ATCC 9341; test: minimum growth-inhibitory concentration; format: cell-based; details: Micrococcus luteus, ATCC9341
Protocol: as §1

[6] = test system: Staphylococcus aureus SMITH; test: minimum growth-inhibitory concentration; format: cell-based
Protocol: as §1

[7] = test system: Bacillus megaterium NRRL B-938; test: minimum growth-inhibitory concentration; format: cell-based; details: Priestia megaterium, NRRLB938
Protocol: as §1

[8] = test system: Staphylococcus aureus FAD209P; test: minimum growth-inhibitory concentration; format: cell-based; details: read-out: minimum growth-inhibitory concentration (MIC)
Protocol: as §1

[9] = test system: Candida tropicalis IAM 4924; test: minimum growth-inhibitory concentration; format: cell-based; details: IAM4924
Protocol: as §1

[10] = test system: Proteus morganii (The Institute for Infectious Diseases); test: minimum growth-inhibitory concentration; format: cell-based; details: Morganella morganii
Protocol: as §1

[11] = test system: Mycobacterium smegmatis ATCC 607; test: minimum growth-inhibitory concentration; format: cell-based; details: Mycolicibacterium smegmatis, ATCC607
Protocol: as §1

[12] = test system: Escherichia coli (National Institute of Health); test: minimum growth-inhibitory concentration; format: cell-based
Protocol: as §1

[13] = test system: Pseudomonas fluorescens NIHJB 254; test: minimum growth-inhibitory concentration; format: cell-based; details: NIHJB254
Protocol: as §1

[14] = test system: Micrococcus flavus I; test: minimum growth-inhibitory concentration; format: cell-based
Protocol: as §1

[15] = test system: Bacillus cereus ATCC 9634; test: minimum growth-inhibitory concentration; format: cell-based; details: ATCC9634
Protocol: as §1

[16] = test system: Candida albicans IAM 4905; test: minimum growth-inhibitory concentration; format: cell-based; details: IAM4905
Protocol: as §1

[17] = test system: Staphylococcus aureus MS 9610; test: minimum growth-inhibitory concentration; format: cell-based; details: MS9610; Staphylococcus aureus MS 9610, drug resistant strain
Protocol: as §1, §2

[18] = test system: Staphylococcus aureus MS 8710; test: minimum growth-inhibitory concentration; format: cell-based; details: MS8710; Staphylococcus aureus MS 8710, drug resistant strain
Protocol: as §1, §2

[19] = basicity of the compounds (alkalinity); format: physicochemical
Text: as §3, §4

[20] = test system: drug resistant strains; test: antimicrobial activity against drug resistant strains; format: cell-based; details: strains marked * in Table 2
Text: One of the particular advantages of the said tylosin derivatives over known macrolide antibiotics is their distinct antimicrobial activity against drug resistant bacteria.
as §2

SMILES	MIC [1] [µg/mL]	solubility in acidic water [2]	solubility in alkaline water [2]	solubility in lower alcohols, ketones, ethers, esters, benzene and toluene [2]	solubility in n-hexane and petroleum ether [2]	solubility in neutral water [2]	MIC [3] [µg/mL]	MIC [4] [µg/mL]	MIC [5] [µg/mL]	MIC [6] [µg/mL]	MIC [7] [µg/mL]	MIC [8] [µg/mL]	MIC [9] [µg/mL]	MIC [10] [µg/mL]	MIC [11] [µg/mL]	MIC [12] [µg/mL]	MIC [13] [µg/mL]	MIC [14] [µg/mL]	MIC [15] [µg/mL]	MIC [16] [µg/mL]	further results
CCC(=O)OC1CC(=O)OC(CC)C(COC2OC(C)C(O)C(OC)C2OC)/C=C(C)/C=C/C(=O)C(C)CC(CC=O)C(OC2OC(C)C(OC3CC(C)(O)C(O)C(C)O3)C(N(C)C)C2O)C1C (stereo not shown) [3-propionyltylosin]	62.5 (≈ 64.3 µM)	soluble	hardly soluble	soluble	hardly soluble	slightly soluble	0.25 (≈ 0.257 µM)	0.25 (≈ 0.257 µM)	< 0.12	0.12 (≈ 0.123 µM)	< 0.12	0.25 (≈ 0.257 µM)	> 250	> 250	3.91 (≈ 4.02 µM)	250 (≈ 257 µM)	> 250	< 0.12	0.25 (≈ 0.257 µM)	> 250	MIC [17]: > 250 µg/mL; MIC [18]: 62.5 µg/mL (≈ 64.3 µM); alkalinity [19]: alkaline compounds
CCC1OC(=O)CC(OC(C)=O)C(C)C(OC2OC(C)C(OC3CC(C)(O)C(O)C(C)O3)C(N(C)C)C2O)C(CC=O)CC(C)C(=O)/C=C/C(C)=C/C1COC1OC(C)C(O)C(OC)C1OC (stereo not shown) [3-acetyltylosin]	125 (≈ 130 µM)	soluble	hardly soluble	soluble	hardly soluble	slightly soluble	0.49 (≈ 0.511 µM)	0.25 (≈ 0.261 µM)	< 0.12	0.12 (≈ 0.125 µM)	0.25 (≈ 0.261 µM)	0.25 (≈ 0.261 µM)	> 250	> 250	7.81 (≈ 8.15 µM)	250 (≈ 261 µM)	> 250	< 0.12	0.49 (≈ 0.511 µM)	> 250	MIC [17]: > 250 µg/mL; MIC [18]: 250 µg/mL (≈ 261 µM); alkalinity [19]: alkaline compounds
CCC1OC(=O)CC(O)C(C)C(OC2OC(C)C(OC3CC(C)(O)C(OC(=O)CC(C)C)C(C)O3)C(N(C)C)C2O)C(CC=O)CC(C)C(=O)/C=C/C(C)=C/C1COC1OC(C)C(O)C(OC)C1OC (stereo not shown) [4"-isovaleryltylosin]	7.8 (≈ 7.8 µM)	soluble	hardly soluble	soluble	hardly soluble	slightly soluble	0.49 (≈ 0.49 µM)	0.5 (≈ 0.5 µM)	< 0.12	0.25 (≈ 0.25 µM)	0.98 (≈ 0.98 µM)	0.49 (≈ 0.49 µM)	> 250	> 250	3.91 (≈ 3.91 µM)	125 (≈ 125 µM)	> 250	0.25 (≈ 0.25 µM)	0.98 (≈ 0.98 µM)	> 250	antimicrobial activity against a wide range of drug resistant strains [20]: particularly strong antimicrobial activity; MIC [17]: 62.5 µg/mL (≈ 62.5 µM); MIC [18]: 15.6 µg/mL (≈ 15.6 µM); alkalinity [19]: alkaline compounds
CCC1OC(=O)CC(OC(C)=O)C(C)C(OC2OC(C)C(OC3CC(C)(O)C(OC(=O)CC(C)C)C(C)O3)C(N(C)C)C2O)C(CC=O)CC(C)C(=O)C=CC(C)=CC1COC1OC(C)C(O)C(OC)C1OC (stereo not shown) [3-acetyl-4"-isovaleryltylosin]	3.91 (≈ 3.75 µM)	soluble	hardly soluble	soluble	hardly soluble	slightly soluble	0.98 (≈ 0.94 µM)	0.5 (≈ 0.48 µM)	0.25 (≈ 0.24 µM)	0.49 (≈ 0.47 µM)	0.49 (≈ 0.47 µM)	0.49 (≈ 0.47 µM)	> 250	> 250	3.91 (≈ 3.75 µM)	125 (≈ 120 µM)	> 250	0.25 (≈ 0.24 µM)	1.95 (≈ 1.87 µM)	> 250	antimicrobial activity against a wide range of drug resistant strains [20]: particularly strong antimicrobial activity; MIC [17]: 62.5 µg/mL (≈ 60 µM); MIC [18]: 15.6 µg/mL (≈ 15 µM); alkalinity [19]: alkaline compounds
